Where a name gives a salt, the structure may show the parent alone.

This test deals with T1, human H1 receptor (Homo sapiens, UniProt P35367).
T1 construct: purchased Euroscreen SA, Brussels, Belgium ES-390-M; host or cells: CHO-K1
T1 sequence (P35367 whole entry): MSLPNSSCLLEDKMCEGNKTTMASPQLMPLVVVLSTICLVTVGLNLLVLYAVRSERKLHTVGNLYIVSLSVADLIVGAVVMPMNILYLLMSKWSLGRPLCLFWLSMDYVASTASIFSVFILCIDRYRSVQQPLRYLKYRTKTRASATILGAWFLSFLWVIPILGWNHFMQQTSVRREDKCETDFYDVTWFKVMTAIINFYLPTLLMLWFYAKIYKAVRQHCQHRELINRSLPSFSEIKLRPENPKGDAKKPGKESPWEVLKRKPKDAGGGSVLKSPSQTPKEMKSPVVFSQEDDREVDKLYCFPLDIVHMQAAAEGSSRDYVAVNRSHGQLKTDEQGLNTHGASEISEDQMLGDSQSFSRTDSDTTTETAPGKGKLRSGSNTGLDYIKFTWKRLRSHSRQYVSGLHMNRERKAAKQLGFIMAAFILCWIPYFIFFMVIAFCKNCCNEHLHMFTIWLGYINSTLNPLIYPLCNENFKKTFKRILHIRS
The test can be described thus: Histamine H1 receptor binding, competition displacement of [3H]-pyrilamine. To be noted: competition displacement of 1 nM [3H]-pyrlamine; 2 μg membranes from recombinant CHO-K1 cells expressing the human H1 receptor; 1 hour at room temperature; read-out: H1 pKi (converted). In general terms: Displacement assays read how much labelled ligand stays bound in the presence of the test substance.
On to `Cc1c(Cl)ccc(OC2CCN(CC3CCN([C@@H](Cc4ccccc4)C(=O)O)CC3)CC2)c1Cl` [Example 37, (αS)4-[[4-(2,4Dichloro-3-methylphenoxy)-1-piperidinyl]methyl]-α-(phenylmethyl)-1-piperidineacetic acid], for which the Ki was 31.6 nM.

With `O=C(O)[C@H](Cc1cccnc1)N1CCC(CN2CCC(Oc3ccc(Cl)c(Cl)c3)CC2)CC1` [Example 42, (αS)-α-[4-[[4-(3,4-Dichlorophenoxy)-1-piperidinyl]methyl]-1-piperidinyl]-3-pyridinepropanoic acid], the Ki was 50.1 nM.

For the compound `Cc1c(OC2CCN(CC3CCN([C@@H](Cc4ccccc4C#N)C(=O)O)CC3)CC2)ccc(Cl)c1Cl` [Example 56, (αS)-α-[(2-Cyanophenyl)methyl]-4-[[4-(3,4-dichloro-2-methylphenoxy)-1-piperidinyl]methyl]-1-piperidineacetic acid], the Ki was 12.6 nM.

As to `Cc1c(OC2CCN(CC3CCN([C@@H](Cc4cccc(C#N)c4)C(=O)O)CC3)CC2)ccc(Cl)c1Cl` [Example 57, (αS)-α-[(3-Cyanophenyl)methyl]-4-[[4-(3,4-dichloro-2-methylphenoxy)-1-piperidinyl]methyl]-1-piperidineacetic acid], the Ki is 20 nM.

On to `O=C(O)[C@H]([C@H](O)c1ccccc1)N1CCC(CN2CCC(Oc3ccc(Cl)c(Cl)c3)CC2)CC1` [Example 58, (αS)-4-[[4-(3,4-Dichlorophenoxy)-1-piperidinyl]methyl]-α-[(R)-hydroxyphenylmethyl]-1-piperidineacetic acid], for which the Ki is 126 nM.

Consider `C[C@@H](c1ccccc1)[C@@H](C(=O)O)N1CCC(CN2CCC(Oc3ccc(Cl)c(Cl)c3)CC2)CC1` [Example 59, (αS)-4-[[4-(3,4-Dichlorophenoxy)-1-piperidinyl]methyl]-α-[(1S)-1-phenylethyl]-1-piperidineacetic acid], for which the Ki was 63.1 nM.

In the case of `O=C(O)[C@H](CCc1ccccc1)N1CCC(CN2CCC(Oc3ccc(Cl)c(Cl)c3)CC2)CC1` [Example 66, (αS)-4-[[4-(3,4-Dichlorophenoxy)-1-piperidinyl]methyl]-α-(2-phenylethyl)-1-piperidineacetic acid], the Ki was 63.1 nM.

As to `Cc1c(Cl)ccc(OC2CCN(CC3CCN([C@@H](Cc4ccccc4)C(=O)O)CC3)CC2)c1Cl` [Example 71, (αS)-4-[[4-(2,4-Dichloro-3-methylphenoxy-1-piperidinyl]methyl]-α-(phenylmethyl)-1-piperidineacetic acid, dihydrochloride salt], the Ki is 158 nM.

As for `O=C(O)[C@H](CCc1ccccc1)N1CCC(CN2CCC(Oc3ccc(Cl)c(Cl)c3)CC2)CC1` [Example 78, (αS)-4-[[4-(3,4-Dichlorophenoxy)-1-piperidinyl]methyl]-α-(2-phenylethyl)-1-piperidineacetic acid dihydrochloride], the Ki is 126 nM.

In the case of `O=C(O)[C@H](Cc1cccs1)N1CCC(CN2CCC(Oc3ccc(Cl)c(Cl)c3)CC2)CC1` [Example 80, (αS)-4-[[4-(3,4Dichlorophenoxy)-1-piperidinyl]methyl]-α-(2-thienylmethyl)-1-piperidineacetic acid], the Ki was 251 nM.

As to `Cn1cncc1C[C@@H](C(=O)O)N1CCC(CN2CCC(Oc3ccc(Cl)c(Cl)c3)CC2)CC1` [Example 81, (αS)-4-[[4-(3,4-Dichlorophenoxy)-1-piperidinyl]methyl]-α-[(1-methyl-1H-imidazol-5-yl)methyl]-1-piperidineacetic acid], the Ki was 398 nM.

Values taken from patent US7495013B2, “Chemical compounds” (AstraZeneca AB, priority 2004, dated 2009).
